Laboratory results reported in US7846959B2, “Raf modulators and methods of use” (Exelixis, Inc., priority 2004, dated 2010).
pIC50: −log10 of the molar value.

Columns and labels:
B-Raf = B-Raf (Homo sapiens, UniProt P15056); experiment: Luciferase-coupled chemiluminescence kinase assay (ATP consumption), B-Raf; type: biochemical; conditions: read-out: bRaf (inhibition indicated as IC50)
Method in brief: (§1)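 Raf enzyme ([…]) pre-incubated with compound 30 minutes at room temperature in 20 mM Tris pH 7.5, 10 mM MgCl2, 0.03% TX-100, 1 mM DTT, then reacted with ATP for 3 hrs at ambient temperature. Remaining ATP quantified by luciferase-luciferin chemiluminescence, consumption held at 25-60%; IC50 reported.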

c-Raf = c-Raf (Homo sapiens, UniProt P04049); experiment: Luciferase-coupled chemiluminescence kinase assay (ATP consumption), c-Raf; type: biochemical; conditions: read-out: cRaf-1 (inhibition indicated as IC50)
Chain of c-Raf (P04049 whole entry): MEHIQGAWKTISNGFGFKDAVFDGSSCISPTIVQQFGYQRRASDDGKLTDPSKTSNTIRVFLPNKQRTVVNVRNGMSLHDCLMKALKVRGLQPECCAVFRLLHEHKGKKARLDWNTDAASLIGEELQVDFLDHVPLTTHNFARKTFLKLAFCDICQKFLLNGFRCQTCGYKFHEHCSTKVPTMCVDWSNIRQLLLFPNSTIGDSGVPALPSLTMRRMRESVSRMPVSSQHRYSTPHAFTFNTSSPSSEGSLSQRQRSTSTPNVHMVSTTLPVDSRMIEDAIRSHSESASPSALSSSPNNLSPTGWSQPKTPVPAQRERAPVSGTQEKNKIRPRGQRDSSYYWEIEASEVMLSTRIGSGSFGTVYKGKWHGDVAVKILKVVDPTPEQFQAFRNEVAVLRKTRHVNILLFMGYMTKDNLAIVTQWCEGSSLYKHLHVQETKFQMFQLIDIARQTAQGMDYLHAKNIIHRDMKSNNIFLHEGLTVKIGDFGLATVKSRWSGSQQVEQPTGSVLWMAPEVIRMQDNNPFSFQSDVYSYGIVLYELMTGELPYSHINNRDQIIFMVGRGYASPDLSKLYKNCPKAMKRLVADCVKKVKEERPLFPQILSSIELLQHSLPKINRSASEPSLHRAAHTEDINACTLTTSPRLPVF
Method in brief: as §1

Chain of B-Raf (P15056 whole entry): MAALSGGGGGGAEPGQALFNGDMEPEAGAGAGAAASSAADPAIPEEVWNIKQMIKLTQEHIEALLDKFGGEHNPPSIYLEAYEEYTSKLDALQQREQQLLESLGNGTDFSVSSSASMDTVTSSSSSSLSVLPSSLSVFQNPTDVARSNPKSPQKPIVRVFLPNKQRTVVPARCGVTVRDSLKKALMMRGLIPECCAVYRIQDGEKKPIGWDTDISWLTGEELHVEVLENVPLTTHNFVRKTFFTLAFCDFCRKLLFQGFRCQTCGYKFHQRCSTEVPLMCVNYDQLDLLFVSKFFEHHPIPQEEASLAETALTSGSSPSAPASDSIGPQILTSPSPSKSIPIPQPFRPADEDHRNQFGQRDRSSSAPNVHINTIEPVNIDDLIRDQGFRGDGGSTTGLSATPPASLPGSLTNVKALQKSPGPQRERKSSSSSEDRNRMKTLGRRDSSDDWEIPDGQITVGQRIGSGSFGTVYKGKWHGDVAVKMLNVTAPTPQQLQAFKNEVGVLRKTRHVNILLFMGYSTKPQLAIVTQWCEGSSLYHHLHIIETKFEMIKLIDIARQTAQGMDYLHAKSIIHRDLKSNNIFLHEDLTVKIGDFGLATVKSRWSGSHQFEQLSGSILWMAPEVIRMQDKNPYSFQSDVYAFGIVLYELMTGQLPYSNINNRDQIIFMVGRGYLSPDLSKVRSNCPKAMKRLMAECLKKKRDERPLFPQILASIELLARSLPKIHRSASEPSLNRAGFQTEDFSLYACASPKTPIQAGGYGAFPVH

| pIC50 (B-Raf) | pIC50 (c-Raf) | Structure (SMILES) |
| --- | --- | --- |
| > 7.00 | > 7.00 | CCN(CC)C(=O)CCCC(=O)Nc1nc2cc(C3(O)c4ccccc4C(=O)N3c3cccc(Cl)c3F)ccc2[nH]1 (stereo not shown) [Entry 343, N′-{5-[2-(3-chloro-2-fluorophenyl)-1-hydroxy-3-oxo-2,3-dihydro-1H-isoindol-1-yl]-1H-benzimidazol-2-yl}-N,N-diethylpentanediamide] |
| > 7.00 | > 7.00 | O=C(Nc1nc2ccc(C3(O)c4ccccc4C(=O)N3c3cccc(Cl)c3F)cc2[nH]1)OCC1CCC1 (stereo not shown) [Entry 344, cyclobutylmethyl {6-[2-(3-chloro-2-fluorophenyl)-1-hydroxy-3-oxo-2,3-dihydro-1H-isoindol-1-yl]-1H-benzimidazol-2-yl}carbamate] |
| > 7.00 | > 7.00 | O=C(Nc1nc2ccc(C3(O)c4ccccc4C(=O)N3c3cccc(Cl)c3F)cc2[nH]1)OCC(F)(F)F (stereo not shown) [Entry 345, 2,2,2-trifluoroethyl {6-[2-(3-chloro-2-fluorophenyl)-1-hydroxy-3-oxo-2,3-dihydro-1H-isoindol-1-yl]-1H-benzimidazol-2-yl}carbamate] |
| > 7.00 | > 7.00 | COC(=O)Nc1nc2cc(C3(O)c4ccccc4C(=O)N3c3cccc(C(C)(C)C)c3)ccc2[nH]1 (stereo not shown) [Entry 346, methyl (5-{2-[3-(1,1-dimethylethyl)phenyl]-1-hydroxy-3-oxo-2,3-dihydro-1H-isoindol-1-yl}-1H-benzimidazol-2-yl)carbamate] |
| > 7.00 | > 7.00 | COC(=O)Nc1nc2ccc(C3(O)c4c(F)cccc4C(=O)N3c3cccc(Cl)c3F)cc2[nH]1 (stereo not shown) [Entry 347, methyl {6-[2-(3-chloro-2-fluorophenyl)-7-fluoro-1-hydroxy-3-oxo-2,3-dihydro-1H-isoindol-1-yl]-1H-benzimidazol-2-yl}carbamate] |
| 5.00 to 6.00 | 5.00 to 6.00 | O=C1c2ccccc2C(O)(c2ccc3[nH]c(Nc4ccccc4)nc3c2)N1c1cccc(Cl)c1F (stereo not shown) [Entry 348, 2-(3-chloro-2-fluorophenyl)-3-hydroxy-3-[2-(phenylamino)-1H-benzimidazol-5-yl]-2,3-dihydro-1H-isoindol-1-one] |
| 5.00 to 6.00 | 5.00 to 6.00 | COC(=O)Nc1nc2ccc(C3(O)c4c(Cl)ccc(Cl)c4C(=O)N3c3cccc(Cl)c3F)cc2[nH]1 (stereo not shown) [Entry 349, methyl {6-[4,7-dichloro-2-(3-chloro-2-fluorophenyl)-1-hydroxy-3-oxo-2,3-dihydro-1H-isoindol-1-yl]-1H-benzimidazol-2-yl}carbamate] |
| 5.00 to 6.00 | 5.00 to 6.00 | CCOC(=O)Nc1nc2cc(C(=O)c3ccccc3C(=O)OCc3ccccc3)ccc2o1 [Entry 350, phenylmethyl 2-[(2-{[(ethyloxy)carbonyl]amino}-1,3-benzoxazol-5-yl)carbonyl]benzoate] |
| > 7.00 | 6.00 to 7.00 | C#Cc1cc(Cl)cc(N2C(=O)c3ccccc3C2(O)c2ccc3[nH]c(NC(=O)OC)nc3c2)c1C (stereo not shown) [Entry 351, methyl {5-[2-(5-chloro-3-ethynyl-2-methylphenyl)-1-hydroxy-3-oxo-2,3-dihydro-1H-isoindol-1-yl]-1H-benzimidazol-2-yl}carbamate] |
| > 7.00 | > 7.00 | C#Cc1cc(N2C(=O)c3ccccc3C2(O)c2ccc3[nH]c(NC(=O)OC)nc3c2)c(F)cc1F (stereo not shown) [Entry 352, methyl {5-[2-(5-ethynyl-2,4-difluorophenyl)-1-hydroxy-3-oxo-2,3-dihydro-1H-isoindol-1-yl]-1H-benzimidazol-2-yl}carbamate] |
| > 7.00 | > 7.00 | C#Cc1c(F)ccc(N2C(=O)c3ccccc3C2(O)c2ccc3[nH]c(NC(=O)OC)nc3c2)c1F (stereo not shown) [Entry 353, methyl {5-[2-(3-ethynyl-2,4-difluorophenyl)-1-hydroxy-3-oxo-2,3-dihydro-1H-isoindol-1-yl]-1H-benzimidazol-2-yl}carbamate] |
| > 7.00 | > 7.00 | O=C1c2ccccc2C(O)(c2ccc3[nH]c(Nc4ncccn4)nc3c2)N1c1cccc(Cl)c1F (stereo not shown) [Entry 354, 2-(3-chloro-2-fluorophenyl)-3-hydroxy-3-[2-(pyrimidin-2-ylamino)-1H-benzimidazol-5-yl]-2,3-dihydro-1H-isoindol-1-one] |
| > 7.00 | > 7.00 | C#Cc1cccc(N2C(=O)c3c(F)ccc(F)c3C2(O)c2ccc3[nH]c(NC(=O)OC)nc3c2)c1F (stereo not shown) [Entry 355, methyl {5-[2-(3-ethynyl-2-fluorophenyl)-4,7-difluoro-1-hydroxy-3-oxo-2,3-dihydro-1H-isoindol-1-yl]-1H-benzimidazol-2-yl}carbamate] |
| > 7.00 | > 7.00 | O=C1c2ccccc2C(O)(c2ccc3[nH]c(Nc4nccs4)nc3c2)N1c1cccc(Cl)c1F (stereo not shown) [Entry 356, 2-(3-chloro-2-fluorophenyl)-3-hydroxy-3-[2-(1,3-thiazol-2-ylamino)-1H-benzimidazol-5-yl]-2,3-dihydro-1H-isoindol-1-one] |
| > 7.00 | 6.00 to 7.00 | CCOC(=O)Nc1nc2cc(C3(O)c4ccccc4C(=O)N3c3cccc(Cl)c3F)ccc2o1 (stereo not shown) [Entry 357, ethyl {5-[2-(3-chloro-2-fluorophenyl)-1-hydroxy-3-oxo-2,3-dihydro-1H-isoindol-1-yl]-1,3-benzoxazol-2-yl}carbamate] |
| 6.00 to 7.00 | 6.00 to 7.00 | COC(=O)Nc1nc2cc(C3(O)c4ccccc4C(=O)N3c3cc(Cl)cc(I)c3C)ccc2[nH]1 (stereo not shown) [Entry 358, methyl {5-[2-(5-chloro-3-iodo-2-methylphenyl)-1-hydroxy-3-oxo-2,3-dihydro-1H-isoindol-1-yl]-1H-benzimidazol-2-yl}carbamate] |
| > 7.00 | > 7.00 | CCc1cccc(N2C(=O)c3ccccc3C2(O)c2ccc3[nH]c(NC(=O)OC)nc3c2)c1F (stereo not shown) [Entry 359, methyl {5-[2-(3-ethyl-2-fluorophenyl)-1-hydroxy-3-oxo-2,3-dihydro-1H-isoindol-1-yl]-1H-benzimidazol-2-yl}carbamate] |
| > 7.00 | > 7.00 | C#Cc1ccc(C)c(N2C(=O)c3ccccc3C2(O)c2ccc3[nH]c(NC(=O)OC)nc3c2)c1 (stereo not shown) [Entry 360, methyl {5-[2-(5-ethynyl-2-methylphenyl)-1-hydroxy-3-oxo-2,3-dihydro-1H-isoindol-1-yl]-1H-benzimidazol-2-yl}carbamate] |
| > 7.00 | > 7.00 | O=C1c2ccccc2C(O)(c2ccc3[nH]c(Nc4cnccn4)nc3c2)N1c1cccc(Cl)c1F (stereo not shown) [Entry 361, 2-(3-chloro-2-fluorophenyl)-3-hydroxy-3-[2-(pyrazin-2-ylamino)-1H-benzimidazol-5-yl]-2,3-dihydro-1H-isoindol-1-one] |
| > 7.00 | > 7.00 | COC(=O)Nc1nc2cc(C3(O)c4ccccc4C(=O)N3c3cccc(I)c3F)ccc2[nH]1 (stereo not shown) [Entry 362, methyl {5-[2-(2-fluoro-3-iodophenyl)-1-hydroxy-3-oxo-2,3-dihydro-1H-isoindol-1-yl]-1H-benzimidazol-2-yl}carbamate] |
| > 7.00 | > 7.00 | C#Cc1ccc(F)c(N2C(=O)c3ccccc3C2(O)c2ccc3nc(NC(=O)OC)[nH]c3c2)c1 (stereo not shown) [Entry 363, methyl {6-[2-(5-ethynyl-2-fluorophenyl)-1-hydroxy-3-oxo-2,3-dihydro-1H-isoindol-1-yl]-1H-benzimidazol-2-yl}carbamate] |
| > 7.00 | > 7.00 | C#Cc1cccc(N2C(=O)c3ccccc3C2(O)c2ccc3[nH]c(Nc4ncccn4)nc3c2)c1F (stereo not shown) [Entry 364, 2-(3-ethynyl-2-fluorophenyl)-3-hydroxy-3-[2-(pyrimidin-2-ylamino)-1H-benzimidazol-5-yl]-2,3-dihydro-1H-isoindol-1-one] |
| > 7.00 | > 7.00 | COC(=O)Nc1nc2cc(C3(O)c4ccccc4C(=O)N3c3cc(C)ccc3C)ccc2[nH]1 (stereo not shown) [Entry 365, methyl {5-[2-(2,5-dimethylphenyl)-1-hydroxy-3-oxo-2,3-dihydro-1H-isoindol-1-yl]-1H-benzimidazol-2-yl}carbamate] |
| > 7.00 | > 7.00 | C=Cc1cccc(N2C(=O)c3ccccc3C2(O)c2ccc3[nH]c(NC(=O)OC)nc3c2)c1F (stereo not shown) [Entry 366, methyl {5-[2-(3-ethenyl-2-fluorophenyl)-1-hydroxy-3-oxo-2,3-dihydro-1H-isoindol-1-yl]-1H-benzimidazol-2-yl}carbamate] |
| > 7.00 | 6.00 to 7.00 | COC(=O)Nc1nc2ccc(C3(O)c4ccccc4C(=O)N3c3cccc(OC)c3F)cc2[nH]1 (stereo not shown) [Entry 367, methyl (6-{2-[2-fluoro-3-(methyloxy)phenyl]-1-hydroxy-3-oxo-2,3-dihydro-1H-isoindol-1-yl}-1H-benzimidazol-2-yl)carbamate] |
| > 7.00 | > 7.00 | COC(=O)Nc1nc2cc(C3(O)c4ccccc4C(=O)N3c3cc(OC)ccc3C)ccc2[nH]1 (stereo not shown) [Entry 368, methyl (5-{1-hydroxy-2-[2-methyl-5-(methyloxy)phenyl]-3-oxo-2,3-dihydro-1H-isoindol-1-yl}-1H-benzimidazol-2-yl)carbamate] |
| > 7.00 | > 7.00 | C#Cc1cccc(N2C(=O)c3cccc(F)c3C2(O)c2ccc3[nH]c(NC(=O)OC)nc3c2)c1F (stereo not shown) [Entry 369, methyl {5-[2-(3-ethynyl-2-fluorophenyl)-7-fluoro-1-hydroxy-3-oxo-2,3-dihydro-1H-isoindol-1-yl]-1H-benzimidazol-2-yl}carbamate] |
| 6.00 to 7.00 | 6.00 to 7.00 | CC#Cc1cccc(N2C(=O)c3ccccc3C2(O)c2ccc3[nH]c(NC(=O)OC)nc3c2)c1F (stereo not shown) [Entry 370, methyl {5-[2-(2-fluoro-3-prop-1-yn-1-ylphenyl)-1-hydroxy-3-oxo-2,3-dihydro-1H-isoindol-1-yl]-1H-benzimidazol-2-yl}carbamate] |
| > 7.00 | > 7.00 | COC(=O)Nc1nc2cc(C3(O)c4c(F)cccc4C(=O)N3c3cc(Cl)ccc3C)ccc2[nH]1 (stereo not shown) [Entry 371, methyl {5-[2-(5-chloro-2-methylphenyl)-7-fluoro-1-hydroxy-3-oxo-2,3-dihydro-1H-isoindol-1-yl]-1H-benzimidazol-2-yl}carbamate] |
